structure (smiles),measurement,setting,value
CC(=O)c1c(C)c([N+](=O)[O-])c(C(C)(C)C)c([N+](=O)[O-])c1C,solubility (mole fraction),"in ethanol, 273.15 K",0.0016
same,solubility (mole fraction),"in ethanol, 278.15 K",0.00198
same,solubility (mole fraction),"in ethanol, 283.15 K",0.00241
same,solubility (mole fraction),"in ethanol, 288.15 K",0.00295
same,solubility (mole fraction),"in ethanol, 293.15 K",0.00354
same,solubility (mole fraction),"in ethanol, 298.15 K",0.00426
same,solubility (mole fraction),"in ethanol, 303.15 K",0.00512
same,solubility (mole fraction),"in ethanol, 308.15 K",0.00619
same,solubility (mole fraction),"in ethanol, 313.15 K",0.0074
same,solubility (mole fraction),"in ethyl acetate, 273.15 K",0.055
same,solubility (mole fraction),"in ethyl acetate, 278.15 K",0.0641
same,solubility (mole fraction),"in ethyl acetate, 283.15 K",0.0742
same,solubility (mole fraction),"in ethyl acetate, 288.15 K",0.0852
same,solubility (mole fraction),"in ethyl acetate, 293.15 K",0.0954
same,solubility (mole fraction),"in ethyl acetate, 298.15 K",0.111
same,solubility (mole fraction),"in ethyl acetate, 303.15 K",0.122
same,solubility (mole fraction),"in ethyl acetate, 308.15 K",0.139
same,solubility (mole fraction),"in ethyl acetate, 313.15 K",0.156
same,solubility (mole fraction),"in methanol, 273.15 K",0.00108
same,solubility (mole fraction),"in methanol, 278.15 K",0.00128
same,solubility (mole fraction),"in methanol, 283.15 K",0.00157
same,solubility (mole fraction),"in methanol, 288.15 K",0.00187
same,solubility (mole fraction),"in methanol, 293.15 K",0.00225
same,solubility (mole fraction),"in methanol, 298.15 K",0.00272
same,solubility (mole fraction),"in methanol, 303.15 K",0.00326
same,solubility (mole fraction),"in methanol, 308.15 K",0.00387
same,solubility (mole fraction),"in methanol, 313.15 K",0.00458
same,solubility (mole fraction),"in n-butanol, 273.15 K",0.0022
same,solubility (mole fraction),"in n-butanol, 278.15 K",0.00286
same,solubility (mole fraction),"in n-butanol, 283.15 K",0.00368
same,solubility (mole fraction),"in n-butanol, 288.15 K",0.00449
same,solubility (mole fraction),"in n-butanol, 293.15 K",0.00533
same,solubility (mole fraction),"in n-butanol, 298.15 K",0.00666
same,solubility (mole fraction),"in n-butanol, 303.15 K",0.00812
same,solubility (mole fraction),"in n-butanol, 308.15 K",0.00972
same,solubility (mole fraction),"in n-butanol, 313.15 K",0.012
